The values that follow come from article PMC6718946 (Toxicology Reports, 2019).

Data set [1] concerns AChE. The conditions noted are these: cited from earlier work.
Data set [2] has as its target acetylcholinesterase (AChE) (Electrophorus electricus, UniProt O42275). To be noted: for pIC50 / IC50: estimated from Fig. 1; for pIC50: 30 °C, pH 8.0, 1.25% DMSO.
For data set [3], the system named is Artemia salina. The conditions noted are these: in vivo; cited from earlier work.
Data set [4] deals with AChE. The conditions noted are these: cited from earlier work. The source holds these as a separate data set.
Data set [5] relates to Artemia salina. The experiment in a line: Toxicology assay on Artemia salina model. The conditions noted are these: for Mortality of A. salina: 24 h.
The test system of data set [6] is AChE. The conditions noted are these: cited from earlier work. This is another data set of the same source.

pIC50, pKi: −log10 of the molar value. Where “and” joins values, the source holds several entries; their conditions need not be identical. Equal entries are not always repeated. Where two headings read alike, the source gives them in different places.

Sequence of acetylcholinesterase (AChE) (O42275 24-633): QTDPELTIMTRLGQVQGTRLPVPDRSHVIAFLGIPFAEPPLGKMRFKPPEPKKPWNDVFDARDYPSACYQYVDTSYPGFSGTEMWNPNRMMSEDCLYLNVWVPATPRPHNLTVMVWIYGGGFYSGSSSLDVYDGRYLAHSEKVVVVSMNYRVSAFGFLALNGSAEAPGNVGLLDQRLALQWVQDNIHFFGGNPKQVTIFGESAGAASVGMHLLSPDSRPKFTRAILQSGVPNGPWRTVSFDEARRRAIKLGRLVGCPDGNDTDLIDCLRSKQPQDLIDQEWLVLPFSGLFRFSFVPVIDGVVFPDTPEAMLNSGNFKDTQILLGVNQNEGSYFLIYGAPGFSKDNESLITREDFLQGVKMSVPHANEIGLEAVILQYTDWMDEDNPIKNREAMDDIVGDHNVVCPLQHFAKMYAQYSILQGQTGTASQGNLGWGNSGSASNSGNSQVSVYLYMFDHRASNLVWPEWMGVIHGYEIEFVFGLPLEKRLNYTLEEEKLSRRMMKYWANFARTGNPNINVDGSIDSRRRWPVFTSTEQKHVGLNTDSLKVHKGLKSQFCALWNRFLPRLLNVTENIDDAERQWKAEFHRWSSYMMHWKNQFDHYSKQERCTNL

For `C=CCc1ccc(OC)cc1` [estragole], in data set [1], the Inhibition mechanism entry is “mixed AChE inhibition”.
Broadly, the pIC50 is the IC50 on a negative log10 scale, so that one unit is a factor of ten. The term pKi denotes the Ki on a negative log10 scale, so that one unit is a factor of ten. As to `O=c1cccc2n1CC1CC2CN(C(=S)NC23CC4CC(CC(C4)C2)C3)C1` (centres unmarked) [Compound U-12, N-1-Adamantylcytisine-12-thiocarbamide], the “Inhibition mechanism” value in data set [2] (Lineweaver-Burk analysis) is reported as “Uncompetitive”. Moreover, the pIC50 in data set [2] is ~2.47 and 2.47. Moreover, the IC50 entry in data set [2] (expressed in g L^−1) is listed as “≈ 1.4 g L^−1”; in data set [2] (expressed in ppm), 1400 ppm. Besides, in data set [2] (read-out: Ki (inhibition constant), Lineweaver-Burk analysis), the pKi is 4.15.
Regarding `CC12CCC(CC1=O)C2(C)C` (centres unmarked) [camphor], the Inhibition mechanism entry in data set [1] was “mixed AChE inhibition”.
As to “1-Hydroxyquinopimaric acid [Compound U-201]”, the “Inhibition mechanism” value in data set [2] (Lineweaver-Burk analysis) is “Competitive”.
Turning to `CNC(=O)Oc1ccc2c(c1)[C@]1(C)CCN(C)[C@@H]1N2C` [Eserine], in data set [3], the Effect on larvae entry was “larval paralysis” and the “Inhibition of AChE activity in Artemia salina” value is “strongly inhibit”.
As to `C=C(C)C1CC=C(C)C(=O)C1` (centres unmarked) [S-carvone], the Inhibition mechanism result in data set [1] is “mixed AChE inhibition”.
Regarding `COc1ccc2c3c1O[C@H]1C[C@@H](O)C=C[C@@]31CCN(C)C2` [galanthamine], in data set [4], the Inhibition mechanism entry is given as “competitive”.
With `C=CCNC(=O)N1C[C@H]2C[C@H](C1)c1cccc(=O)n1C2` [Compound A-63, N-Allylcytisine-12-carbamide], the “Inhibition mechanism” value in data set [2] (Lineweaver-Burk analysis) was “mixed”; in data set [2] (Lineweaver-Burk analysis, listed as A63), “Mixed inhibition”. Further, the pIC50 in data set [2] was ~2.83 and 2.83. Further, the IC50 entry in data set [2] (expressed in g L^−1) is on record as “≈ 0.4 g L^−1”; in data set [2] (expressed in ppm) it was 400 ppm. For the same molecule, in data set [2] (mixed inhibition parameter), the “α´ (effect on Vmax)” value was determined as 0.05. The “Mortality of A. salina” value in data set [5] (at 1000 ppm) and in data set [5] (at 2000 ppm) was 3% throughout. Besides, the “Toxicity classification according to Artemia salina test” value in data set [5] (class by percent mortality of nauplii) is “non-toxic (0–10% non-toxic compound)”. Moreover, the entries for the “Effect on A. salina viability” value in data set [5] (concentration less than 1000 ppm) and in data set [5] (concentration less than 2000 ppm) were “did not affect” and “not affected”, respectively.
As for `C[n+]1c2ccccc2cc2ccccc21` [N-methylacridinium], the Inhibition mechanism result in data set [6] is “competitive”.
In the case of Cytisine-12-carbamide [Compound A-36], the “Inhibition mechanism” value in data set [2] (Lineweaver-Burk analysis) is given as “Competitive”.
In the case of `CC[N+](C)(C)c1cccc(O)c1` [edrophonium], in data set [6], the Inhibition mechanism entry is “competitive”.
